Data taken from PubChem BioAssay (NCI).
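GI50: concentration for 50% inhibition of growth. TGI is the concentration that stops growth completely.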

What was measured:
Assay in all cases: growth of human tumour cells (NCI), 384-well format
786-0 renal = test system: 786-0 renal
A498 renal = test system: A498 renal
A549 NSCLC = test system: A549 NSCLC
ACHN renal = test system: ACHN renal
BT-549 breast = test system: BT-549 breast
CAKI-1 renal = test system: CAKI-1 renal
CCRF-CEM leukemia = test system: CCRF-CEM leukemia
COLO 205 colon = test system: COLO 205 colon
DU-145 prostate = test system: DU-145 prostate
EKVX NSCLC = test system: EKVX NSCLC
HCC-2998 colon = test system: HCC-2998 colon
HCT-116 colon = test system: HCT-116 colon
HCT-15 colon = test system: HCT-15 colon
HL-60(TB) leukemia = test system: HL-60(TB) leukemia
HOP-62 NSCLC = test system: HOP-62 NSCLC
HS 578T breast = test system: HS 578T breast
HT29 colon = test system: HT29 colon
IGROV1 ovarian = test system: IGROV1 ovarian
K-562 leukemia = test system: K-562 leukemia
KM12 colon = test system: KM12 colon
LOX IMVI melanoma = test system: LOX IMVI melanoma
M14 melanoma = test system: M14 melanoma
MALME-3M melanoma = test system: MALME-3M melanoma
MCF7 breast = test system: MCF7 breast
MDA-MB-435 melanoma = test system: MDA-MB-435 melanoma
MOLT-4 leukemia = test system: MOLT-4 leukemia
NCI-H226 lung = test system: NCI-H226 lung
NCI-H23 lung = test system: NCI-H23 lung
NCI-H322M lung = test system: NCI-H322M lung
NCI-H522 lung = test system: NCI-H522 lung
NCI/ADR-RES ovarian = test system: NCI/ADR-RES ovarian
OVCAR-3 ovarian = test system: OVCAR-3 ovarian
OVCAR-5 ovarian = test system: OVCAR-5 ovarian
OVCAR-8 ovarian = test system: OVCAR-8 ovarian
PC-3 prostate = test system: PC-3 prostate
RXF 393 renal = test system: RXF 393 renal
SF-268 CNS = test system: SF-268 CNS
SF-295 CNS = test system: SF-295 CNS
SK-MEL-2 melanoma = test system: SK-MEL-2 melanoma
SK-MEL-5 melanoma = test system: SK-MEL-5 melanoma
SK-OV-3 ovarian = test system: SK-OV-3 ovarian
SN12C renal = test system: SN12C renal
SNB-75 CNS = test system: SNB-75 CNS
SR leukemia = test system: SR leukemia
T-47D breast = test system: T-47D breast
TK-10 renal = test system: TK-10 renal
UACC-62 melanoma = test system: UACC-62 melanoma

NC(=O)c1nc(-c2c(F)cccc2Cl)oc1Nc1ccc(C(=O)N2CCOCC2)cc1
GI50 ([…]-0 renal): 3.95 µM
TGI (786-0 renal): 9.55 µM
GI50 (A498 renal): 1.86 µM
TGI (A498 renal): 16.1 µM
GI50 (A549 NSCLC): 0.686 µM
TGI (A549 NSCLC): 5.44 µM
GI50 (ACHN renal): 0.779 µM
TGI (ACHN renal): 3.6 µM
GI50 (BT-549 breast): 2 µM
TGI (BT-549 breast): 5.84 µM
GI50 (CAKI-1 renal): 1.76 µM
TGI (CAKI-1 renal): 5.85 µM
GI50 (CCRF-CEM leukemia): 0.211 µM
TGI (CCRF-CEM leukemia): 0.383 µM
GI50 (COLO 205 colon): 1.13 µM
TGI (COLO 205 colon): 7.44 µM
GI50 (DU-145 prostate): 4.44 µM
TGI (DU-145 prostate): 23.2 µM
GI50 (EKVX NSCLC): 1.96 µM
TGI (EKVX NSCLC): 7.57 µM
GI50 (HCC-2998 colon): 6.72 µM
TGI (HCC-2998 colon): 21.9 µM
GI50 (HCT-116 colon): 0.957 µM
TGI (HCT-116 colon): 13.8 µM
GI50 (HCT-15 colon): 2.41 µM
TGI (HCT-15 colon): 19 µM
GI50 (HL-60(TB) leukemia): 0.36 µM
TGI (HL-60(TB) leukemia): 1.09 µM
GI50 (HOP-62 NSCLC): 2.41 µM
TGI (HOP-62 NSCLC): 19.6 µM
GI50 (HS 578T breast): 1.34 µM
TGI (HS 578T breast): 3.75 µM
GI50 (HT29 colon): 2.48 µM
TGI (HT29 colon): 25 µM
GI50 (IGROV1 ovarian): 1.4 µM
TGI (IGROV1 ovarian): 3.17 µM
GI50 (K-562 leukemia): 1.62 µM
TGI (K-562 leukemia): 15 µM
GI50 (KM12 colon): 0.17 µM
TGI (KM12 colon): 3.89 µM
GI50 (LOX IMVI melanoma): 0.869 µM
TGI (LOX IMVI melanoma): 2.39 µM
GI50 (M14 melanoma): 17.3 µM
TGI (M14 melanoma): > 47.5 µM
GI50 (MALME-3M melanoma): 4.68 µM
TGI (MALME-3M melanoma): 12.3 µM
GI50 (MCF7 breast): 0.708 µM
TGI (MCF7 breast): 16.8 µM
GI50 (MDA-MB-435 melanoma): 11.8 µM
TGI (MDA-MB-435 melanoma): > 51 µM
GI50 (MOLT-4 leukemia): 0.182 µM
TGI (MOLT-4 leukemia): 0.436 µM
GI50 (NCI-H226 lung): 0.474 µM
TGI (NCI-H226 lung): 2.67 µM
GI50 (NCI-H23 lung): 0.6 µM
TGI (NCI-H23 lung): 4.43 µM
GI50 (NCI-H322M lung): 6.5 µM
TGI (NCI-H322M lung): 23.6 µM
GI50 (NCI-H522 lung): 0.795 µM
TGI (NCI-H522 lung): 3.76 µM
GI50 (NCI/ADR-RES ovarian): 2.46 µM
TGI (NCI/ADR-RES ovarian): 7.79 µM
GI50 (OVCAR-3 ovarian): 1.6 µM
TGI (OVCAR-3 ovarian): 7.65 µM
GI50 (OVCAR-5 ovarian): 2.47 µM
TGI (OVCAR-5 ovarian): 19.6 µM
GI50 (OVCAR-8 ovarian): 4.51 µM
TGI (OVCAR-8 ovarian): 18.7 µM
GI50 (PC-3 prostate): 4.22 µM
TGI (PC-3 prostate): 27.2 µM
GI50 (RXF 393 renal): 1.1 µM
TGI (RXF 393 renal): 3.3 µM
GI50 (SF-268 CNS): 2.45 µM
TGI (SF-268 CNS): 11.2 µM
GI50 (SF-295 CNS): 2.95 µM
TGI (SF-295 CNS): > 45.9 µM
GI50 (SK-MEL-2 melanoma): 15.3 µM
TGI (SK-MEL-2 melanoma): 30.1 µM
GI50 (SK-MEL-5 melanoma): 13.6 µM
TGI (SK-MEL-5 melanoma): 34.7 µM
GI50 (SK-OV-3 ovarian): 6.28 µM
TGI (SK-OV-3 ovarian): 28.6 µM
GI50 (SN12C renal): 1.64 µM
TGI (SN12C renal): 13.6 µM
GI50 (SNB-75 CNS): 1.78 µM
TGI (SNB-75 CNS): 4.24 µM
GI50 (SR leukemia): 0.189 µM
TGI (SR leukemia): 0.342 µM
GI50 (T-47D breast): 0.682 µM
TGI (T-47D breast): 20.7 µM
GI50 (TK-10 renal): 2.58 µM
TGI (TK-10 renal): 8.79 µM
GI50 (UACC-62 melanoma): 5.96 µM
TGI (UACC-62 melanoma): 20.4 µM
